Reference: paper PMC6299220 (mBio, 2018)
≈ marks a conversion by molar mass, not a printed value.

Assays:
[1] = system: M. tuberculosis DRM167-16x3 (KasA V123A); format: cell-based, Mycobacterium tuberculosis
[2] = system: M. tuberculosis DRM167-8x6 (KasA M213L); format: cell-based, Mycobacterium tuberculosis
[3] = system: M. tuberculosis DRM167-8x3 (KasA I145T); format: cell-based, Mycobacterium tuberculosis
[4] = system: M. tuberculosis DRM167-16x6 (KasA I122S); format: cell-based, Mycobacterium tuberculosis
[5] = system: M. tuberculosis DRM167-8x2 (KasA A119T); format: cell-based, Mycobacterium tuberculosis
[6] = system: M. tuberculosis DRM167-32x11 (KasA G240S); format: cell-based, Mycobacterium tuberculosis
[7] = system: M. tuberculosis DRM167-32x2 (KasA P206T); format: cell-based, Mycobacterium tuberculosis
[8] = system: M. tuberculosis mc^24914; assay: microbe, parasite or virus in culture; format: cell-based; settings: Mycobacterium tuberculosis
[9] = system: M. tuberculosis TDR31; assay: microbe, parasite or virus in culture; format: cell-based; settings: Mycobacterium tuberculosis
[10] = system: M. tuberculosis TDR116; assay: microbe, parasite or virus in culture; format: cell-based; settings: Mycobacterium tuberculosis
[11] = system: mycolic acid biosynthesis in M. tuberculosis DRM167-32x2 (KasA P206T); format: cell-based, Mycobacterium tuberculosis
[12] = system: M. tuberculosis
[13] = system: M. tuberculosis DRM5; assay: microbe, parasite or virus in culture; format: cell-based; settings: Mycobacterium tuberculosis
[14] = system: M. tuberculosis DRM8.3; assay: microbe, parasite or virus in culture; format: cell-based; settings: Mycobacterium tuberculosis
[15] = system: M. tuberculosis TDR36; assay: microbe, parasite or virus in culture; format: cell-based; settings: Mycobacterium tuberculosis

What does the source list for COc1nc2ccc(Br)cc2cc1[C@@H](c1ccccc1)[C@@](O)(CCN(C)C)c1cccc2ccccc12 [BDQ, bedaquiline]?
MIC [1]: 0.5 µM (≈ 0.278 µg/mL); MIC [2]: 0.5 µM (≈ 0.278 µg/mL); MIC [3]: 1 µM (≈ 0.556 µg/mL); MIC [4]: 0.5 µM (≈ 0.278 µg/mL); MIC [5]: 0.5 µM (≈ 0.278 µg/mL); MIC [6]: 0.25 µM (≈ 0.139 µg/mL); MIC [7]: 0.12 µM (≈ 0.0667 µg/mL)

How did the MIC [8] turn out when CCCCS(=O)(=O)Nc1ccc2cnn(C)c2c1 [DG167, N-(1-Methyl-1H-indazol-6-yl)butane-1-sulfonamide] was run?
The MIC was 0.78 µM (≈ 0.209 µg/mL).

What about the MIC [9] of the same compound?
The MIC was 0.2 µM (≈ 0.0535 µg/mL).

And the MIC [10]?
Its MIC is 0.2 µM (≈ 0.0535 µg/mL).

And the MIC [1]?
Its MIC is 1.56 µM (≈ 0.417 µg/mL).

What about the MIC [2] of the same compound?
Its MIC is 3.12 µM (≈ 0.834 µg/mL).

And the MIC [3]?
The MIC was 6.25 µM (≈ 1.67 µg/mL).

And the MIC [4]?
The MIC was 50 µM (≈ 13.4 µg/mL).

What about the MIC [5] of the same compound?
The MIC was 50 µM (≈ 13.4 µg/mL).

What about the MIC [6] of the same compound?
The MIC was 100 µM (≈ 26.7 µg/mL).

And the MIC [7]?
Its MIC is greater than 100 µM.

And the “inhibition of mycolic acid biosynthesis” value [11]?
Its value is “resistant to DG167-mediated inhibition of mycolic acid biosynthesis”.

What about the “frequency of resistant mutants” value [12] of the same compound?
The value was 1 × 10^−7.

Which MIC [1] does the source give for CC[C@@H](CO)NCCN[C@@H](CC)CO [EMB, ethambutol] here?
The MIC was 1.56 µM (≈ 0.319 µg/mL).

And the MIC [2]?
Its MIC is 1.56 µM (≈ 0.319 µg/mL).

And the MIC [3]?
Its MIC is 1.56 µM (≈ 0.319 µg/mL).

What about the MIC [4] of the same compound?
Its MIC is 1.56 µM (≈ 0.319 µg/mL).

What about the MIC [5] of the same compound?
The MIC was 1.56 µM (≈ 0.319 µg/mL).

And the MIC [6]?
The MIC was 1.56 µM (≈ 0.319 µg/mL).

And the MIC [7]?
Its MIC is 1.56 µM (≈ 0.319 µg/mL).

Which results are given for CCc1cc(C(N)=S)ccn1 [ETH, ethionamide]?
MIC [1]: 25 µM (≈ 4.16 µg/mL); MIC [2]: 25 µM (≈ 4.16 µg/mL); MIC [3]: 25 µM (≈ 4.16 µg/mL); MIC [4]: 12.5 µM (≈ 2.08 µg/mL); MIC [5]: 12.5 µM (≈ 2.08 µg/mL); MIC [6]: 12.5 µM (≈ 2.08 µg/mL); MIC [7]: 12.5 µM (≈ 2.08 µg/mL)

Which results are given for NNC(=O)c1ccncc1 [INH, isoniazid]?
MIC [13]: 0.4 µM (≈ 0.0549 µg/mL); MIC [14]: 0.4 µM (≈ 0.0549 µg/mL); MIC [8]: 1.6 µM (≈ 0.219 µg/mL); MIC [9]: > 12 µM; MIC [15]: > 12 µM; MIC [10]: > 12 µM; MIC [1]: 0.38 µM (≈ 0.0521 µg/mL); MIC [2]: 0.38 µM (≈ 0.0521 µg/mL); MIC [3]: 0.38 µM (≈ 0.0521 µg/mL); MIC [4]: 0.19 µM (≈ 0.0261 µg/mL); MIC [5]: 0.38 µM (≈ 0.0521 µg/mL); MIC [6]: 0.19 µM (≈ 0.0261 µg/mL); MIC [7]: 0.19 µM (≈ 0.0261 µg/mL)

COc1c(N2C[C@@H]3CCCN[C@@H]3C2)c(F)cc2c(=O)c(C(=O)O)cn(C3CC3)c12 [Moxi, moxifloxacin] was tested. Which MIC [1] did it give?
Its MIC is 0.03 µM (≈ 0.012 µg/mL).

What about the MIC [2] of the same compound?
Its MIC is 0.03 µM (≈ 0.012 µg/mL).

And the MIC [3]?
Its MIC is 0.03 µM (≈ 0.012 µg/mL).

And the MIC [4]?
The MIC was 0.03 µM (≈ 0.012 µg/mL).

And the MIC [5]?
The MIC was 0.03 µM (≈ 0.012 µg/mL).

And the MIC [6]?
Its MIC is 0.03 µM (≈ 0.012 µg/mL).

What about the MIC [7] of the same compound?
The MIC was 0.03 µM (≈ 0.012 µg/mL).

Which MIC [1] does the source give for O=[N+]([O-])c1cn2c(n1)OC[C@@H](OCc1ccc(OC(F)(F)F)cc1)C2 [PA824] here?
The MIC was 0.1 µM (≈ 0.0359 µg/mL).

And the MIC [2]?
The MIC was 0.1 µM (≈ 0.0359 µg/mL).

And the MIC [3]?
The MIC was 0.1 µM (≈ 0.0359 µg/mL).

And the MIC [4]?
The MIC was 0.1 µM (≈ 0.0359 µg/mL).

And the MIC [5]?
The MIC was 0.1 µM (≈ 0.0359 µg/mL).

What about the MIC [6] of the same compound?
The MIC was 0.1 µM (≈ 0.0359 µg/mL).

And the MIC [7]?
Its MIC is 0.1 µM (≈ 0.0359 µg/mL).

What does the source list for CO[C@H]1/C=C/O[C@@]2(C)Oc3c(C)c(O)c4c(O)c(c(/C=N/N5CCN(C)CC5)c(O)c4c3C2=O)NC(=O)/C(C)=C\C=C\[C@H](C)[C@H](O)[C@@H](C)[C@@H](O)[C@@H](C)[C@H](OC(C)=O)[C@@H]1C [RIF, rifampin]?
MIC [1]: 0.001 µM (≈ 0.000823 µg/mL); MIC [2]: 0.001 µM (≈ 0.000823 µg/mL); MIC [3]: 0.002 µM (≈ 0.00165 µg/mL); MIC [4]: 0.001 µM (≈ 0.000823 µg/mL); MIC [5]: 0.001 µM (≈ 0.000823 µg/mL); MIC [6]: 0.001 µM (≈ 0.000823 µg/mL); MIC [7]: 0.001 µM (≈ 0.000823 µg/mL)

With CC(C)=CCC/C(C)=C/CNCCNC1C2CC3CC(C2)CC1C3 (centres unmarked) [SQ109] as the compound, how does the MIC [1] read?
Its MIC is 0.8 µM (≈ 0.264 µg/mL).

What about the MIC [2] of the same compound?
Its MIC is 0.4 µM (≈ 0.132 µg/mL).

What about the MIC [3] of the same compound?
The MIC was 0.8 µM (≈ 0.264 µg/mL).

What about the MIC [4] of the same compound?
The MIC was 0.4 µM (≈ 0.132 µg/mL).

What about the MIC [5] of the same compound?
The MIC was 0.8 µM (≈ 0.264 µg/mL).

And the MIC [6]?
The MIC was 0.4 µM (≈ 0.132 µg/mL).

What about the MIC [7] of the same compound?
The MIC was 0.4 µM (≈ 0.132 µg/mL).
